# System: 855422-203-R-J1-PDC complex spheroid viability
# Assay: Anticancer human tumor 855422-203-R-J1-PDC patient-derived bladder carcinoma cell line growth inhibition [POLQ]
# Conditions: for IC50: curve of first compound; for viability, T/C: stronger effect = lower value
# Procedure: Multicellular complex tumor spheroid response to Polymerase (POL) inhibitors (novobiocin, ART-558, RP6685) in combination with a variety of drugs and investigational agents in selected tumor cell lines
# The POL inhibitors (novobiocin, ART-558, and RP6685) were evaluated both individually and in combination with standard of care and investigational anticancer small molecules within a complex spheroid model of solid tumors. . Complex spheroids include a stromal component modeled by human endothelial cells (HUVEC) and fibroblasts modeled by human mesenchymal stem cells (MSCs). The concentration ranges selected for each drug and investigational agent were based upon clinically achievable concentrations if the clinical Cmax of the agent was known.
# Compounds. The drugs and investigational agents: novobiocin (NSC847541), ART-558 (NSC835418), RP-6685 (NSC848927), peposertib (NSC802822), ceralasertib (NSC780249), elimusertib (NSC800525), camonsertib (NSC841442), AZD-1390 (NSC803789), olaparib (NSC753686), talazoparib (NSC767125), rucaparib (NSC756644), sotorasib (NSC818433), MRTX-1133 (NSC836407), SN-38 (NSC673596), topotecan (NSC609699), epotoside (NSC141540), doxorubicin (NSC123127), gemcitabine (NSC613327), 5-fluorouracil (NSC19893), paclitaxel (NSC125973), vemurafenib (NSC761431), MSA-2 (NSC828583), SN-011 (NSC837082), adavosertib (NSC754352), prexasertib (NSC758257), carboplatin (NSC241240) and oxaliplatin (NSC266046), were obtained from the National Cancer Institute (NCI) Developmental Therapeutics Program Chemical Repository (21). The FDA-approved anticancer drug set is available from the Developmental Therapeutics Program at https://dtp.cancer.gov/organization/dscb/obtaining/. […] The stock solutions were prepared in dimethyl sulfoxide (DMSO, Sigma-Aldrich, St. Louis, MO, cat. D2650), except for the platinum compounds which were prepared in saline (Quality Biological, Gaithersburg, MD, cat. 114-055-101), at 800-fold the tested concentration and stored at -70 degrees C prior to their use. All drugs and investigational agents were tested over a range starting from a high concentration at or near the clinical Cmax and decreasing in half-log increments. If the clinical Cmax for an agent had not been determined, the highest concentration tested was 10 microM, except for SN-38, which was tested at a high concentration of 1 microM.
# Cell Culture. All cells were maintained in an incubator at 37 degrees C and 5% CO2 with 95% humidity. The PDC lines were cultured according to standard operating procedures established by the NCI PDMR (https://pdmr.cancer.gov). Table 3 of the manuscript, lists the cell lines along with the number of the three cell types plated to form the mct-spheroids and media for tumor cell growth. After thawing, all PDC lines, except 997537-175-T-J1-PDC and 415267-285-R-J2-PDC, were cultured in Matrigel-coated flasks prepared with a working solution of 1X Ham's F-12 nutrient mix, without supplementation (Thermo Fisher Scientific, cat. 11765054), 100 U/mL penicillin-streptomycin (Thermo Fisher Scientific, cat. 15140122), and 2.5% Matrigel (Corning Inc., Corning, NY, cat. 354248) for the first three passages. The two PDC lines 997537-175-T-J1-PDC and 415267-285-R-J2-PDC were cultured on uncoated flasks. The 857933-349-R-J2-PDC line was cultured in 6C/Colon 1B media containing advanced DMEM/F-12 (Thermo Fisher Scientific, cat. 12634028), 10 mM HEPES (Thermo Fisher Scientific, cat. 15630080), 1X GlutaMAX supplement (Thermo Fisher Scientific, cat. 35050061), 0.1 mg/mL primocin (InvivoGen, San Diego, CA, cat. ant-pm-2), 10% defined fetal bovine serum, heat inactivated (HyClone Laboratories Inc., Logan, UT, cat. SH30070.03HI), 50% L-WRN conditioned media (ATCC, cat. CRL-3276), 1.25 mM N-Acetyl-L-cysteine (Sigma-Aldrich, cat. A9165), 10 mM nicotinamide (Sigma-Aldrich, cat. N0636), 1X B-27 supplement (Thermo Fisher Scientific, cat. 17504044), 1X N-2 supplement (Thermo Fisher Scientific, cat. […]
# 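Also: spheroids exposed to compounds for seven days before readout.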
smiles,measurement,setting,value
O=C(Nc1ccc(O)c(NS(=O)(=O)c2ccc(F)cc2)c1)c1ccc(-c2ccccc2)cc1 + COC1C(OC(N)=O)C(O)C(Oc2ccc3c(O)c(NC(=O)c4ccc(O)c(CC=C(C)C)c4)c(=O)oc3c2C)OC1(C)C,IC50,second compound 0.0316 µM,8.24 µM
same,IC50,second compound 0.1 µM,8.44 µM
same,IC50,second compound 0.316 µM,8.45 µM
same,IC50,second compound 1 µM,8.14 µM
same,IC50,second compound 3.16 µM,7.83 µM
same,IC50,second compound 10 µM,7.63 µM
same,"viability, T/C","second compound 0.0316 µM, first compound 0.0316 µM",101%
same,"viability, T/C","second compound 0.0316 µM, first compound 0.1 µM",101%
same,"viability, T/C","second compound 0.0316 µM, first compound 0.316 µM",119%
same,"viability, T/C","second compound 0.0316 µM, first compound 1 µM",116%
same,"viability, T/C","second compound 0.0316 µM, first compound 3.16 µM",106%
same,"viability, T/C","second compound 0.0316 µM, first compound 10 µM",38.7%
same,"viability, T/C","second compound 0.1 µM, first compound 0.0316 µM",109%
same,"viability, T/C","second compound 0.1 µM, first compound 0.1 µM",105%
same,"viability, T/C","second compound 0.1 µM, first compound 0.316 µM",110%
same,"viability, T/C","second compound 0.1 µM, first compound 1 µM",98.2%
same,"viability, T/C","second compound 0.1 µM, first compound 3.16 µM",103%
same,"viability, T/C","second compound 0.1 µM, first compound 10 µM",40.8%
same,"viability, T/C","second compound 0.316 µM, first compound 0.0316 µM",105%
same,"viability, T/C","second compound 0.316 µM, first compound 0.1 µM",110%
same,"viability, T/C","second compound 0.316 µM, first compound 0.316 µM",113%
same,"viability, T/C","second compound 0.316 µM, first compound 1 µM",110%
same,"viability, T/C","second compound 0.316 µM, first compound 3.16 µM",106%
same,"viability, T/C","second compound 0.316 µM, first compound 10 µM",40.4%
same,"viability, T/C","second compound 1 µM, first compound 0.0316 µM",106%
same,"viability, T/C","second compound 1 µM, first compound 0.1 µM",111%
same,"viability, T/C","second compound 1 µM, first compound 0.316 µM",111%
same,"viability, T/C","second compound 1 µM, first compound 1 µM",113%
same,"viability, T/C","second compound 1 µM, first compound 3.16 µM",98.8%
same,"viability, T/C","second compound 1 µM, first compound 10 µM",39%
same,"viability, T/C","second compound 3.16 µM, first compound 0.0316 µM",109%
same,"viability, T/C","second compound 3.16 µM, first compound 0.1 µM",122%
same,"viability, T/C","second compound 3.16 µM, first compound 0.316 µM",112%
same,"viability, T/C","second compound 3.16 µM, first compound 1 µM",111%
same,"viability, T/C","second compound 3.16 µM, first compound 3.16 µM",94.2%
same,"viability, T/C","second compound 3.16 µM, first compound 10 µM",37.9%
same,"viability, T/C","second compound 10 µM, first compound 0.0316 µM",107%
same,"viability, T/C","second compound 10 µM, first compound 0.1 µM",104%
same,"viability, T/C","second compound 10 µM, first compound 0.316 µM",108%
same,"viability, T/C","second compound 10 µM, first compound 1 µM",102%
same,"viability, T/C","second compound 10 µM, first compound 3.16 µM",101%
same,"viability, T/C","second compound 10 µM, first compound 10 µM",34.6%
